# The source made the active and inactive calls. The calls are words filed in the database; no cut-off is given here.
# Experiments:
# Liver = test: Metabolic stability in mouse liver microsomes after 30 to 60 mins; type: ADME
# Liver microsome [1] = test: Metabolic stability in dog liver microsomes after 30 to 60 mins; type: ADME, Canis lupus familiaris
# Staphylococcus aureus [2] = test: Antibacterial activity against Staphylococcus aureus infected in po dosed ICR mouse assessed as increase in mouse survival after 7 days; type: functional; settings: 168 h
# Mus musculus = test: Dose normalized AUC in C57BL/6 mouse at 1 mg/kg, iv and 2 mg/kg, po; type: ADME, organism-based; settings: in vivo
# [3] = Plasma clearance in C57BL/6 mouse at 1 mg/kg, iv and 2 mg/kg, po; type: ADME, organism-based
# [4] = Volume of distribution at steady state in C57BL/6 mouse at 1 mg/kg, iv and 2 mg/kg, po; type: ADME, organism-based; settings: in vivo, read-out: Vdss
# [5] = Half life in C57BL/6 mouse at 1 mg/kg, iv and 2 mg/kg, po; type: ADME, organism-based; settings: in vivo
# [6] = Oral bioavailability in C57BL/6 mouse at 2 mg/kg; type: ADME, organism-based; settings: in vivo
# Staphylococcus aureus [7] = test: Antibacterial activity against methicillin-sensitive Staphylococcus aureus; type: functional
# Staphylococcus aureus [8] = test: Antibacterial activity against methicillin-resistant Staphylococcus aureus; type: functional
# Streptococcus pneumoniae = test: Antibacterial activity against Streptococcus pneumoniae; type: functional
# Enterococcus faecalis = test: Antibacterial activity against Enterococcus faecalis; type: functional
# Enterococcus faecium = test: Antibacterial activity against vancomycin-resistant Enterococcus faecium; type: functional
# Escherichia coli [9] = test: Antibacterial activity against Escherichia coli; type: functional
# Acinetobacter baumannii = test: Antibacterial activity against Acinetobacter baumannii; type: functional
# Pseudomonas aeruginosa = test: Antibacterial activity against Pseudomonas aeruginosa; type: functional
# Staphylococcus aureus [10] = test: Antibacterial activity against quinolone-sensitive Staphylococcus aureus; type: functional
# Staphylococcus aureus [11] = test: Antibacterial activity against quinolone-resistant Staphylococcus aureus; type: functional
# Staphylococcus aureus [12] = test: Antibacterial activity against Staphylococcus aureus in presence of 50% human serum; type: functional, organism-based
# Staphylococcus aureus [13] = test: Antibacterial activity against Staphylococcus aureus in presence of 500 ug/ml sheared DNA; type: functional, organism-based
# Staphylococcus aureus [14] = test: Antibacterial activity against Staphylococcus aureus infected in iv dosed ICR mouse assessed as increase in mouse survival after 7 days; type: functional; settings: 168 h
# [15] = Unbound fraction in human plasma; type: ADME, cell-free
# [16] = Unbound fraction in dog plasma; type: ADME, cell-free, Canis lupus familiaris
# [17] = Unbound fraction in mouse plasma; type: ADME, cell-free
# Liver microsome [18] = test: Metabolic stability in human liver microsomes after 30 to 60 mins; type: ADME
# Escherichia coli [19] = test: Antibacterial activity against Escherichia coli infected in iv dosed ICR mouse assessed as increase in mouse survival after 7 days; type: functional; settings: 168 h
# Escherichia coli [20] = test: Antibacterial activity against Escherichia coli infected in po dosed ICR mouse assessed as increase in mouse survival after 7 days; type: functional; settings: 168 h
# Canis familiaris = test: Dose normalized AUC in beagle dog at 1 mg/kg, iv and 2 mg/kg, po; type: ADME, organism-based, Canis lupus familiaris; settings: in vivo
# [21] = Plasma clearance in beagle dog at 1 mg/kg, iv and 2 mg/kg, po; type: ADME, organism-based, Canis lupus familiaris
# [22] = Volume of distribution at steady state in beagle dog at 1 mg/kg, iv and 2 mg/kg, po; type: ADME, organism-based, Canis lupus familiaris; settings: in vivo, read-out: Vdss
# [23] = Half life in beagle dog at 1 mg/kg, iv and 2 mg/kg, po; type: ADME, organism-based, Canis lupus familiaris; settings: in vivo
# [24] = Oral bioavailability in beagle dog at 2 mg/kg; type: ADME, organism-based, Canis lupus familiaris; settings: in vivo
# Haemophilus influenzae = test: Antibacterial activity against Haemophilus influenzae; type: functional
# Moraxella catarrhalis = test: Antibacterial activity against Moraxella catarrhalis; type: functional
# DNA gyrase = DNA gyrase (Staphylococcus aureus, UniProt P0A0K8+P20831); test: Inhibition of Staphylococcus aureus DNA gyrase; type: protein-complex assay
# [25] = Inhibition of Staphylococcus aureus DNA topoisomerase 4
# [26] = Inhibition of Escherichia coli gyrase
# [27] = Inhibition of Escherichia coli topoisomerase 4
# [28] = Solubility of the compound in PBS at pH 2; type: physicochemical
# Staphylococcus aureus [29] = test: Antibacterial activity against Staphylococcus aureus ATCC 29213 assessed as reduction of colony forming units using > 10^5 CFU/ml inoculum at 0.06 to 0.12 ug/ml by time kill experiment; type: functional
# [30] = Solubility of the compound in PBS at pH 7; type: physicochemical
# Staphylococcus aureus [31] = test: Inhibition of DNA synthesis in Staphylococcus aureus using radioligand at 0.001 to 1 ug/ml by scintillation counting
# Sequence of DNA gyrase (P0A0K8 whole entry): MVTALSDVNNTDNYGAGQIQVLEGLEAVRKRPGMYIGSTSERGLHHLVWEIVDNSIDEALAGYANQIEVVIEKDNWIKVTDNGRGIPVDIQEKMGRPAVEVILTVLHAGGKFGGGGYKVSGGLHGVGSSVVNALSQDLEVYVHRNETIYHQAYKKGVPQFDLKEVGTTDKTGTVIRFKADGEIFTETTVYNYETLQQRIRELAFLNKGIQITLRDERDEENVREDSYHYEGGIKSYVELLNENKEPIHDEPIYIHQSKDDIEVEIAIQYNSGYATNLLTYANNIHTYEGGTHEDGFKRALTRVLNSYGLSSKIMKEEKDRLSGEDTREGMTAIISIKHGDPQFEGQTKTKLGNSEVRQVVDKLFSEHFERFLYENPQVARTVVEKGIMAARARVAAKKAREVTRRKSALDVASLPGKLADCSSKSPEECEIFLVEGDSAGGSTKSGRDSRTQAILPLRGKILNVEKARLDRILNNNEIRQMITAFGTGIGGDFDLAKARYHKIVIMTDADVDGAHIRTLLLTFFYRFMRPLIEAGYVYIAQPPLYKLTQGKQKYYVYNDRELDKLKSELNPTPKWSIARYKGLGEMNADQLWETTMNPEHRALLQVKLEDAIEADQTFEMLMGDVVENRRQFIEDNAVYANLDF
# Sequence of DNA gyrase (P20831 whole entry): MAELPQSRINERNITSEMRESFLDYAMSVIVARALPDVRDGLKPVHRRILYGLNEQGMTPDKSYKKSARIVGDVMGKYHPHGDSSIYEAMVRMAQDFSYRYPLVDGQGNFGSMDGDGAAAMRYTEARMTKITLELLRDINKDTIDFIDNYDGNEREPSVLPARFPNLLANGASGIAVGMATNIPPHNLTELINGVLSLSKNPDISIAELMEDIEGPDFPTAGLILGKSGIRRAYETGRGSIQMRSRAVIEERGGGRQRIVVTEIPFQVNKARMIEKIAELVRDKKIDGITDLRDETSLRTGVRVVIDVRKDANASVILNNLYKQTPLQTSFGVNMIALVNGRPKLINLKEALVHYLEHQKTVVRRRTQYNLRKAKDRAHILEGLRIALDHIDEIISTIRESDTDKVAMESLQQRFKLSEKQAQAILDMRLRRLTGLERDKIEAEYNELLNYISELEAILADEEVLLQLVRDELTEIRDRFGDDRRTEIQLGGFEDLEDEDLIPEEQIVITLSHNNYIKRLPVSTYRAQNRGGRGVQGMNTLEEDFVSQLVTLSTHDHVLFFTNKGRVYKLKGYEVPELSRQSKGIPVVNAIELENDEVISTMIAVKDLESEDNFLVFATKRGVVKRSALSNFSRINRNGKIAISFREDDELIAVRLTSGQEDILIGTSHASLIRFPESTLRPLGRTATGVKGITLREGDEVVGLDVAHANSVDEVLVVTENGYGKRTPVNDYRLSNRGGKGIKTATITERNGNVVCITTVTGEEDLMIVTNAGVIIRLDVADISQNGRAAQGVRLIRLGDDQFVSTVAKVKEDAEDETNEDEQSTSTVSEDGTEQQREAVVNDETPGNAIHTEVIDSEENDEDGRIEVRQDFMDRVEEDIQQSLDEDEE
smiles,measurement,setting,value
COc1ccc2ncc(F)c(C[C@@H](O)C34CCC(NCc5ccc6c(n5)NC(=O)CO6)(CC3)CO4)c2n1.Cl,Stability,Liver,Stable
same,Stability,Liver microsome [1],Stable
same,ED50,Staphylococcus aureus [2],4.5 mg/kg
same,AUC/dose,Mus musculus,0.68 µM·h/mpk
same,clearance,[3],48.7 mL/min/kg
same,Vd,[4],4.94 L/kg
same,half-life,[5],2.15 h
same,bioavailability,[6],25.3%
same,MIC,Staphylococcus aureus [7],0.06 µg/mL
same,MIC,Staphylococcus aureus [8],0.5 µg/mL
same,MIC,Streptococcus pneumoniae,0.25 µg/mL
same,MIC,Enterococcus faecalis,1 µg/mL
same,MIC,Enterococcus faecium,2 µg/mL
same,MIC,Escherichia coli [9],4 µg/mL
same,MIC,Acinetobacter baumannii,1 µg/mL
same,MIC,Pseudomonas aeruginosa,8 µg/mL
same,MIC,Staphylococcus aureus [10],0.06 µg/mL
same,MIC,Staphylococcus aureus [11],0.5 µg/mL
same,Activity,Staphylococcus aureus [12],Active
same,Activity,Staphylococcus aureus [13],Active
same,ED50,Staphylococcus aureus [14],3.5 mg/kg
same,fraction unbound,[15],> 0.25
same,fraction unbound,[16],> 0.25
same,fraction unbound,[17],> 0.25
same,Stability,Liver microsome [18],Stable
COc1ccc2ncc(F)c(C[C@H](O)C34CCC(NCc5ccc6c(n5)NC(=O)CO6)(CC3)CO4)c2n1.Cl,Stability,Liver,Stable
same,Stability,Liver microsome [1],Stable
same,ED50,Staphylococcus aureus [2],2.2 mg/kg
same,ED50,Escherichia coli [19],23 mg/kg
same,ED50,Escherichia coli [20],85 mg/kg
same,AUC/dose,Mus musculus,0.76 µM·h/mpk
same,clearance,[3],43.3 mL/min/kg
same,Vd,[4],1.61 L/kg
same,half-life,[5],1.7 h
same,bioavailability,[6],30.1%
same,AUC/dose,Canis familiaris,3.57 µM·h
same,clearance,[21],9.16 mL/min/kg
same,Vd,[22],2.6 L/kg
same,half-life,[23],4.49 h
same,bioavailability,[24],40.4%
same,MIC,Staphylococcus aureus [7],0.02 µg/mL
same,MIC,Staphylococcus aureus [8],0.06 µg/mL
same,MIC,Streptococcus pneumoniae,0.05 µg/mL
same,MIC,Enterococcus faecalis,0.5 µg/mL
same,MIC,Enterococcus faecium,0.5 µg/mL
same,MIC,Haemophilus influenzae,0.5 µg/mL
same,MIC,Escherichia coli [9],2 µg/mL
same,MIC,Acinetobacter baumannii,0.5 µg/mL
same,MIC,Moraxella catarrhalis,0.015 µg/mL
same,MIC,Pseudomonas aeruginosa,8 µg/mL
same,MIC,Staphylococcus aureus [10],0.06 µg/mL
same,MIC,Staphylococcus aureus [11],0.25 µg/mL
same,IC50,DNA gyrase,1020 nM
same,IC50,[25],10400 nM
same,IC50,[26],780 nM
same,IC50,[27],500 nM
same,solubility,[28],200 µM
same,Activity,Staphylococcus aureus [12],Active
same,Activity,Staphylococcus aureus [13],Active
same,ED50,Staphylococcus aureus [14],2.5 mg/kg
same,log10cfu,Staphylococcus aureus [29],>3
same,solubility,[30],154 µM
same,fraction unbound,[15],> 0.25
same,fraction unbound,[16],> 0.25
same,fraction unbound,[17],> 0.25
same,Stability,Liver microsome [18],Stable
COc1ccc2ncc(F)c(CCC34CCC(NCc5ccc6c(n5)NC(=O)CO6)(CC3)CO4)c2n1.Cl,Stability,Liver,Stable
same,Stability,Liver microsome [1],Stable
same,ED50,Staphylococcus aureus [2],17 mg/kg
same,AUC/dose,Mus musculus,0.98 µM·h/mpk
same,clearance,[3],34.6 mL/min/kg
same,Vd,[4],2.22 L/kg
same,half-life,[5],2.24 h
same,bioavailability,[6],71.6%
same,AUC/dose,Canis familiaris,0.43 µM·h
same,clearance,[21],39.8 mL/min/kg
same,Vd,[22],5.36 L/kg
same,half-life,[23],1.85 h
same,bioavailability,[24],> 100%
same,MIC,Staphylococcus aureus [7],0.016 µg/mL
same,MIC,Staphylococcus aureus [8],0.008 µg/mL
same,MIC,Streptococcus pneumoniae,0.064 µg/mL
same,MIC,Enterococcus faecalis,1 µg/mL
same,MIC,Enterococcus faecium,0.5 µg/mL
same,MIC,Haemophilus influenzae,1 µg/mL
same,MIC,Escherichia coli [9],1 µg/mL
same,MIC,Acinetobacter baumannii,0.5 µg/mL
same,MIC,Pseudomonas aeruginosa,4 µg/mL
same,MIC,Staphylococcus aureus [10],0.016 µg/mL
same,MIC,Staphylococcus aureus [11],0.064 µg/mL
same,IC50,DNA gyrase,220 nM
same,IC50,[25],4400 nM
same,IC50,[26],180 nM
same,IC50,[27],200 nM
same,solubility,[28],20.3 µM
same,Activity,Staphylococcus aureus [12],inactive
same,Activity,Staphylococcus aureus [13],inactive
same,ED50,Staphylococcus aureus [14],5.5 mg/kg
same,solubility,[30],< 0.89 µM
same,fraction unbound,[15],< 0.02
same,fraction unbound,[16],< 0.02
same,fraction unbound,[17],< 0.02
same,Stability,Liver microsome [18],Stable
same,inhibition,Staphylococcus aureus [31],Active

# From ChEMBL document CHEMBL3286154, “Oxabicyclooctane-linked novel bacterial topoisomerase inhibitors as broad spectrum antibacterial agents” (ACS Med Chem Lett, 2014)
